Data on 5 molecules can be found in patent US20140017790A1, “CONTROL AGENT FOR CONTROLLING UNDIFFERENTIATED STATE AND USE THEREOF” (RIKEN, priority 2011, published 2014).

Assay type in all cases: cell-based
Data set [1] relates to human iPS cells. The data set is described as follows: phase-contrast morphology of human iPS cells with JAK or PI3K inhibitor. The following applies: 6 days. Here is the method: As a JAK inhibitor, a JAK inhibitor I (Merck) was used. As PI3K inhibitor, the same LY294002 as used in Example 4 was used. Human iPS cells were cultured for 6 days under feeder conditions in the same manner as in the above item (1), except that not only the CCL2 but also the JAK inhibitor or the PI3K inhibitor further was added to the medium. In the medium, the concentration of the Jak inhibitor was set to 10 ng/ml, and the concentration of the PI3K inhibitor was set to 5 ng/ml.
Furthermore, as a control, the cells were cultured in the same manner as in the above using the following media, respectively: a medium containing bFGF instead of the CCL2 and containing DMSO (5 ng/ml) instead of the inhibitor; and a medium containing bFGF (5 ng/ml) instead of the CCL2 and containing the inhibitor.
The phase-contrast micrographs show the results obtained under the conditions of, from the above: the inhibitor not added (DMSO added); the JAK inhibitor added; and the PI3K inhibitor added.

The test system of the next data set is mouse iPS cells. Nature of the data set: siRNA knockdown and quantitative RT-PCR in mouse iPS cells. Here is the method:
A PrimeScript RT-PCR Kit (trade name, TAKARA BIO INC.), an ABI 7500 Fast real time PCR system (trade name, Applied BioSystems), and a SYBR (registered trademark) Premix Ex Taq (trade name, TAKARA BIO INC.) were used in accordance with their protocols. PCR was carried out by conducting 40 cycles of treatment with a treatment at 94° C. for 5 second and at 62.5° C. for 20 seconds as 1 cycle. The expression level of each gene was calculated by normalizing the relative amount of mRNA in the gene to Gapdh mRNA according to the 2^−ΔΔ^CT method (Thomse R, Solvsten C A, Linnet T E, et al., Analysis of qPCR data by converting exponentially related Ct values into linearly related XO values. J Bioinform Comput Biol 2010: 8: 885-900.). […]
The Stealth siRNA was added so that the final concentration thereof per well was […]. Then, 24 hours after the transfection, total RNAs were extracted, and the expression levels of the undifferentiated marker genes and the Ccl2 gene in the mouse iPS cells were determined by the quantitative RT-PCR.
Also, as a negative control, the mouse iPS cells were subjected to transfection in the same manner as in the above, except that Stealth siRNA (trade name: Stealth RNAi (registered trademark) Negative Control Medium GC, Duplex-catalog number 12935-300, Invitrogen) was used, and the expressions of the undifferentiated marker genes were measured (n=3). […]

The subject of data set [2] is human iPS cells. The data set is described as follows: quantitative RT-PCR of undifferentiated marker genes in human iPS cells under feeder conditions. Particulars: CCL2 500 ng/ml, 6 days, relative to bFGF 5 ng/ml. On the procedure:
A PrimeScript RT-PCR Kit (trade name, TAKARA BIO INC.), an ABI 7500 Fast real time PCR system (trade name, Applied BioSystems), and a SYBR (registered trademark) Premix Ex Taq (trade name, TAKARA BIO INC.) were used in accordance with their protocols. PCR was carried out by conducting 40 cycles of treatment with a treatment at 94° C. for 5 second and at 62.5° C. for 20 seconds as 1 cycle. The expression level of each gene was calculated by normalizing the relative amount of mRNA in the gene to Gapdh mRNA according to the 2^−ΔΔ^CT method (Thomse R, Solvsten C A, Linnet T E, et al., Analysis of qPCR data by converting exponentially related Ct values into linearly related XO values. J Bioinform Comput Biol 2010: 8: 885-900.).
The human iPS cells were used as undifferentiated cells, and human recombinant CCL2 (137-13011, WAKO, SEQ ID NO: 1) was used as the CCL2. The medium used was a medium for human stem cells (trade name “Primate ES medium”, ReproCELL Incorporated). To this medium, LIF was not added, and the CCL2 was added. The concentration of the CCL2 in the medium was set to 500 ng/ml. Under the above-described feeder conditions, the human iPS cells were cultured on the feeder cells SNL76/7 that produce LIF in the above-described medium. Then, 6 days after the start of the culture, the feeder cells were removed, and total RNAs were collected from the cultured human iPS cells. The undifferentiated marker genes were then subjected to the quantitative RT-PCR.
Also, as a negative control, the human iPS cells were cultured under the feeder conditions and the undifferentiated marker genes were subjected to quantitative RT-PCR in the same manner as in the above, except that bFGF (derived from human, WAKO) was added instead of the CCL2 so that the concentration thereof was 5 ng/ml. Thereafter, assuming that the expression level in the comparative example was 1, the relative value with respect to this value was calculated as the fold change in expression level.

For data set [3], the system named is human iPS cells. Nature of the data set: differentiation of EBs to myocardial cells, morphology and Tropomyosin immunostaining. The following applies: 10th day from the plating; CCL2(+)/LIF(+) or CCL2(-)/bFGF(+) 5 ng/ml. The source says:
It has been reported that, in general, according to the spontaneous differentiation-inducing method used in the above item (1), differentiation into myocardial cells is more liable to occur. Thus, regarding the cells on the 10th day from the plating in the above item (1), differentiation into myocardial cells was examined.
The morphology of the cells was examined with a microscope. Furthermore, they were immunostained with a Tropomyosin, which is a marker for myocardial cells. Also, culture of the cells, observation of the morphology, and staining were carried out in the same manner as in the above using a medium to which bFGF (5 ng/ml) has been added instead of the CCL2 and LIF.
The photographs in FIG. 19 show the morphologies of the cells on the 10th day from the plating of EB. […] Furthermore, in FIGS. 19A and 19B, the photographs on the left show the cell morphologies, and the photographs on the right show the stained cells. In the black and white photographs of FIG. 19, the stained portions are seen as light gray.

Data set [4] has as its system human iPS cells. The data set is described as follows: culture of human iPS cells in feeder free media, EB plating, cell adhesion. Particulars: LIF not added, CCL2 500 ng/ml alone or bFGF 5 ng/ml alone. The source says:
As undifferentiated cells, the same human iPS cells as used in Example 7 were used. As CCL2, the mouse recombinant CCL2 used in the item (1) of Example 2 was used. As feeder free media, the following three kinds of media were provided by adding or not adding the CCL2, LIF and bFGF to the medium for human stem cells used in Example 8. Specifically, the media used were as follows: the medium with CCL2 not added (−)/LIF not added (−)/bFGF added (+); the medium with CCL2 added (+)/LIF not added (−)/bFGF not added (−); and the medium with CCL2 added (+)/LIF added (+)/bFGF not added (−). In each medium, the concentration of the LIF was set to 50 units/ml, the concentration of the CCL2 was set to 500 ng/ml, and the concentration of the bFGF was set to 5 ng/ml. Then, the human iPS cells were cultured for 6 days using each medium, and EBs were produced. Thereafter, the thus-produced EBs were seeded in gelatin coated dishes so that each gelatin coated dish contained one EB, and cultured for 5 days in a medium (DMEM) containing 20% FBS.
The photographs in FIG. 20 show the cell morphologies of the EBs on the 5th day from the plating.

Data set [5] has as its system human iPS cells. Nature of the data set: EB formation and spontaneous differentiation, cell morphology. Particulars: third day from the plating; iPS cells precultured 6 days with the substance. Here is the method: Human iPS cells were cultured for 6 days under feeder conditions in the same manner as in Example 7. Thereafter, embryonic bodies (EBs) were produced. EB formation is known as a spontaneous differentiation-inducing method for inducing the differentiation of iPS cells. Specifically, first, a ROCK inhibitor (Y-27632, WAKO) was added to the culture solution being used for the culture of the human iPS cells so that the concentration thereof was […], and the human iPS cells were cultured for 1 hour under the conditions of 37° C. and 5% CO2. Then, the feeder cells used for the culture were dissociated with a human ES/iPS cell dissociation solution (CTK solution), and the human iPS cells were collected. Then, 1×10^6 of the human iPS cells were seeded in an ultra-low adhesion culture vessel, and cultured for 6 days in an EB preparation medium (DMEM/F12, Knockout SR, L-glutamine, NEAA (non-essential amino acid (GIBCO)), 2-ME, Pen/Strep). The medium was replaced every two days.
Next, spontaneous differentiation was induced. Specifically, the produced EBs were seeded in gelatin coated dishes so that each gelatin coated dish contained one EB. Each EB was cultured for 14 days in a medium (DMEM) containing 20% FBS, and then observed with a microscope. The medium was replaced every two days. The photographs in FIG. 18 show the cell morphology on the third day from the plating.

With `CC(C)(C)c1nc2c3cc[nH]c(=O)c3c3cc(F)ccc3c2[nH]1` [Jak inhibitor, reference compound], the “undifferentiation potency, cell morphology” value in the data set on human iPS cells [1] (Jak inhibitor 10 ng/ml, both bFGF(+)/CCL2(-) and bFGF(-)/CCL2(+)) was “all the cells had been differentiated and many dead cells were observed”.
For the molecule “siRNA against the Klf4 gene: Stealth siRNA (Invitrogen), sequence SEQ ID NO: 8 CAAGUUUGUGCUGAAGGCGUCUCUG (commercial Stealth siRNA, chemistry not given here)”, the “expression of the Tbx3 gene after knockdown of the Klf4 gene” value in the data set on mouse iPS cells (24 hours, relative to negative control) was “decreased markedly”.
Regarding “human recombinant CCL2: human recombinant CCL2 (137-13011, WAKO, SEQ ID NO: 1)”, in the data set with human iPS cells [2], the “expression of the KLF4 gene, fold change” value is recorded as “about two-fold”; the “expression of the Nanog gene, fold change” value is recorded as “about two-fold”; the “expression of the REX1 gene, fold change” value is listed as “about two-fold”; the “expression of the STELLA gene, fold change” value is “about two-fold”.
As for “bFGF: bFGF (derived from human, WAKO), added instead of the CCL2 as negative control”, in the data set with human iPS cells [3], the “cell morphology of EBs, differentiation into myocardial cells” value is on record as “most of them were epithelial cell-like cells” and the “staining with Tropomyosin (marker for myocardial cells)” value was “not stained”. Moreover, in the data set with human iPS cells [4], the cell adhesion entry was “not observed”. In the data set with human iPS cells [1] (inhibitor not added (DMSO added), bFGF(+)/CCL2(-) or bFGF(-)/CCL2(+)), the “undifferentiation potency, cell morphology” value is given as “most of the cells maintained the undifferentiation potency, but some of the cells were differentiated”. Moreover, in the data set on human iPS cells [5], the “morphology of EB after spontaneous differentiation-inducing culture” value is recorded as “epithelial cell-like morphology”.
Turning to “siRNA against the Ccl2 gene: Stealth siRNA (Invitrogen), sequence SEQ ID NO: 7 CAUUCACCAGCAAGAUGAUCCCAAU (commercial Stealth siRNA, chemistry not given here)”, in the data set on mouse iPS cells (24 hours after transfection, relative to negative control siRNA), the “expressions of the undifferentiated marker genes (Klf4, Tbx3) after knockdown of the Ccl2 gene” value is “decreased markedly”.
